Test results published in US6143910A, “Methods for preparation and use of 1α, 24(S) -dihydroxy vitamin D2” (priority 1998, dated 2000).

Columns and labels:
[1] = Dermatological testing, topical treatment of dermatitis; assay type: in vivo, human; settings: ointment 10 μg per gram, twice daily, four to six weeks
Description: Compositions containing 1α,24(S)-dihydroxy vitamin D2 are evaluated for therapeutic efficacy of the composition in the topical treatment of dermatitis (contact and ectopic). The composition evaluated is an ointment containing 10 μg of 1α,24-dihydroxy vitamin D2 per gram of ointment in a petrolatum-almond oil base. […] The patients are treated in an out-patient clinic. They are instructed to use the preparation two times a day.
The ointment is as far as possible applied to a single lesion, or to an area of the disease. The ointment and its container are weighed before the treatment starts and returned with any unused contents for reweighing at the end of the treatment.
The area of the lesion treated is estimated and recorded, and the lesion is photographed as required, together with suitable "control" lesions. The latter are preferably lesions of similar size and stage of development, either in the vicinity of the treated lesion or symmetrically contralateral. Relevant details of the photographic procedure are recorded so as to be reproduced when the lesions are next photographed (distance, aperture, angle, background, etc.). The ointment is applied twice daily and preferably left uncovered. The "control" lesions are left untreated, but if this is not possible, the treatment used on them is noted. […]

[2] = Prophylaxis of postmenopausal bone loss in healthy postmenopausal women; assay type: in vivo, human; settings: at or above 1.0 μg/day
Description: A clinical study is conducted with healthy postmenopausal women having ages between 55 and 60 years. The study involves up to 80 patients randomly divided into two treatment groups, and continues for 24 to 36 months. One treatment group receives a constant dosage of 1α,24(S)-dihydroxy vitamin D2 (u.i.d.; a dose level at or above 1.0 μg/day) and the other receives a matching placebo. The study is conducted as indicated in Example 2 above.

[3] = Hypocalcemia and metabolic bone disease in chronic hemodialysis patients; assay type: in vivo, human; settings: greater than 3.0 μg/day, twelve months
Description: A twelve-month, double-blind, placebo-controlled clinical trial is conducted with thirty men and women with renal disease who are undergoing chronic hemodialysis. […] Efficacy is evaluated by pre- and post-treatment comparisons of the two patient groups with regard to (a) direct measurements of intestinal calcium absorption, (b) total body calcium retention, (c) radial and spinal bone mineral density, or (d) determinations of serum calcium. Safety is evaluated by regular monitoring of serum calcium.

[4] = test system: BCA-1 or ZR-75-1 (breast) and COL-1 (colon); experiment: Antiproliferative activity in human cancer cell lines, thymidine incorporation; assay type: cell-based; settings: dose-response studies
Description: Dose-response studies are conducted with 1α,24(S)-(OH)2 D2 in a battery of human cancer cell lines. These cell lines include, but are not limited to, the following: BCA-1 or ZR-75-1 (breast) and COL-1 (colon), as described by Shieh, H. L. et al. Chem. Biol. Interact., vol. 81, pp. 35-55 (1982). In this study, appropriate solvents are used as negative controls.

[5] = test system: Human keratinocytes; experiment: Epidermal cell differentiation and proliferation testing; assay type: cell-based; settings: 0.05 to 5 μg/ml
Description: Human keratinocytes are cultured according to known modifications of the system originally described by Rheinwald and Green (Cell, vol. 6, p. 331 (1975)). The 1α,24(S)-dihydroxy vitamin D2, dissolved in ethanol, is added to cells to yield a variety of concentrations between 0.05 and 5 μg/ml with the ethanol concentration not to exceed 0.5% v/v. Control cultures are supplemented with ethanol at a final concentration of 0.5% v/v.
Differentiation and proliferation of epidermal cells in culture is examined by:
1. quantitation of cornified envelopes;
2. quantitation of cell density of cells attached to disks;
3. monitoring transglutaminase activity; or
4. monitoring DNA synthesis by incorporation of ^3 H-thymidine.

[6] = test system: HL-60 promyelocytes; experiment: HL-60 cell differentiation assay; assay type: cell-based; settings: dose-response study
Description: A dose-response study is conducted with 1α,24(S)-(OH)2 D2 in the HL-60 cell differentiation assay as described by DeLuca and Ostrom (DeLuca, H. F. and Ostrem, V. K., Prog. Clin. Biol. Res., vol. 259, pp. 41-55 (1988)). In this study, 1α,25-(OH)2 D3 is used as a positive control and appropriate solvents are used as negative controls. The following variables are evaluated: nonspecific acid esterase activity, nitroblue tetrazolium (NBT) reduction, and thymidine incorporation.

**Q.** With `C=C1/C(=C\C=C2/CCC[C@]3(C)[C@@H]([C@H](C)/C=C/[C@@](C)(O)C(C)C)CC[C@@H]23)C[C@@H](O)C[C@@H]1O` [1α,24(S)-(OH)2 D2, 1α,24(S)-dihydroxy Vitamin D2] as the compound, how does the Incidence of hypercalcemia [1] read?
**A.** insignificant incidence of hypercalcemia

**Q.** And the “Lesion severity scores (erythema, scaling, thickness, rated 0 to 3)” value [1]?
**A.** lower scores than the control lesions

**Q.** And the “Losses in total body calcium, radial or spinal bone densities versus baseline” value ([2]; 24 to 36 months)?
**A.** reduced losses

**Q.** And the Monitored safety parameters ([2]; long-term)?
**A.** confirm the safety

**Q.** What about the Incidence of hypercalcemia [3] of the same compound?
**A.** insignificant incidence of hypercalcemia

**Q.** And the “Radial and spinal bone densities” value [3]?
**A.** stable radial and spinal bone densities relative to baseline values

**Q.** And the Serum calcium levels [3]?
**A.** normalized serum calcium levels

**Q.** What about the Total body calcium [3] of the same compound?
**A.** stable values for total body calcium

**Q.** What about the “Antiproliferative activity, inhibition of thymidine incorporation” value [4] of the same compound?
**A.** potent (and reversible) antiproliferative activity

**Q.** What about the “Cell density of attached cells versus control cultures” value [5] of the same compound?
**A.** fewer attached cells

**Q.** What about the “Cornified envelopes versus control cultures” value [5] of the same compound?
**A.** more cornified envelopes

**Q.** And the “DNA synthesis (3H-thymidine incorporation) versus control cultures” value [5]?
**A.** lower DNA synthesis

**Q.** And the “Transglutaminase activity versus control cultures” value [5]?
**A.** higher transglutaminase activity

**Q.** And the “Promotion of differentiation of HL-60 promyelocytes to monocytes” value [6]?
**A.** potent activity
